Measurements published in ChEMBL document CHEMBL1142358, “3-amino-benzo[d]isoxazoles as novel multitargeted inhibitors of receptor tyrosine kinases” (J Med Chem, 2008).
pIC50: −log10 of the molar value. One block for each compound: values may come before it. Active and inactive are the calls of the source. No cut-off for these calls is given here.

Key:
[1] = molecular target: Mast/stem cell growth factor receptor Kit (Homo sapiens, UniProt P10721); test: Inhibition of KIT by HTRF assay
[2] = molecular target: T1, Receptor-type tyrosine-protein kinase FLT3 (Homo sapiens, UniProt P36888)
T1 sequence (P36888 whole entry): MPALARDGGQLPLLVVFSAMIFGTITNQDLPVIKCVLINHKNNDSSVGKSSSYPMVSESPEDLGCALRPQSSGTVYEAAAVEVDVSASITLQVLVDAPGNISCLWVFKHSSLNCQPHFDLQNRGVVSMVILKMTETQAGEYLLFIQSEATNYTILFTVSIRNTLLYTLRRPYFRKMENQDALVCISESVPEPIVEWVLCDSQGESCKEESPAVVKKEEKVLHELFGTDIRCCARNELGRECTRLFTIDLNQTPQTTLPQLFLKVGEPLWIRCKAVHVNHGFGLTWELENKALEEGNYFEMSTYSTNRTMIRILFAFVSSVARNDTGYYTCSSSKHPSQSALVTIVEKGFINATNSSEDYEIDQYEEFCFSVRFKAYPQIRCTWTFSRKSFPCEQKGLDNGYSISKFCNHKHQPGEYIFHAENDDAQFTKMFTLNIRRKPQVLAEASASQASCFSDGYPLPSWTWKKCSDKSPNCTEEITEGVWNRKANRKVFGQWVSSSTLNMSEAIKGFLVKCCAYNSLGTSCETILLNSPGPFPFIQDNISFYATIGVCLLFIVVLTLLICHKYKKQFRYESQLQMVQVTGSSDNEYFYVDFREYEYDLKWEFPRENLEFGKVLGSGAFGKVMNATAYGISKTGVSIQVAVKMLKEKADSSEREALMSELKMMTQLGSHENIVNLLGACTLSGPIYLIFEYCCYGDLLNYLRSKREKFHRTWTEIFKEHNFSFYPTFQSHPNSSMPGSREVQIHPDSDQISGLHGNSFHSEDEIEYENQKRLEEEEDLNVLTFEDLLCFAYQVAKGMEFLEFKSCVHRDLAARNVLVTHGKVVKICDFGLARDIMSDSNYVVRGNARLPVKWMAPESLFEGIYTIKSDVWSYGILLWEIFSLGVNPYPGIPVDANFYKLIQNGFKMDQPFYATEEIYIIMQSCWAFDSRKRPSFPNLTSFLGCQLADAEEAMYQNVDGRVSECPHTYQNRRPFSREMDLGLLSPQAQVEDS
Description: Inhibition of FLT3 by HTRF assay

[3] = molecular target: Vascular endothelial growth factor receptor 2 (Homo sapiens, UniProt P35968)
Sequence of Vascular endothelial growth factor receptor 2 (P35968 whole entry): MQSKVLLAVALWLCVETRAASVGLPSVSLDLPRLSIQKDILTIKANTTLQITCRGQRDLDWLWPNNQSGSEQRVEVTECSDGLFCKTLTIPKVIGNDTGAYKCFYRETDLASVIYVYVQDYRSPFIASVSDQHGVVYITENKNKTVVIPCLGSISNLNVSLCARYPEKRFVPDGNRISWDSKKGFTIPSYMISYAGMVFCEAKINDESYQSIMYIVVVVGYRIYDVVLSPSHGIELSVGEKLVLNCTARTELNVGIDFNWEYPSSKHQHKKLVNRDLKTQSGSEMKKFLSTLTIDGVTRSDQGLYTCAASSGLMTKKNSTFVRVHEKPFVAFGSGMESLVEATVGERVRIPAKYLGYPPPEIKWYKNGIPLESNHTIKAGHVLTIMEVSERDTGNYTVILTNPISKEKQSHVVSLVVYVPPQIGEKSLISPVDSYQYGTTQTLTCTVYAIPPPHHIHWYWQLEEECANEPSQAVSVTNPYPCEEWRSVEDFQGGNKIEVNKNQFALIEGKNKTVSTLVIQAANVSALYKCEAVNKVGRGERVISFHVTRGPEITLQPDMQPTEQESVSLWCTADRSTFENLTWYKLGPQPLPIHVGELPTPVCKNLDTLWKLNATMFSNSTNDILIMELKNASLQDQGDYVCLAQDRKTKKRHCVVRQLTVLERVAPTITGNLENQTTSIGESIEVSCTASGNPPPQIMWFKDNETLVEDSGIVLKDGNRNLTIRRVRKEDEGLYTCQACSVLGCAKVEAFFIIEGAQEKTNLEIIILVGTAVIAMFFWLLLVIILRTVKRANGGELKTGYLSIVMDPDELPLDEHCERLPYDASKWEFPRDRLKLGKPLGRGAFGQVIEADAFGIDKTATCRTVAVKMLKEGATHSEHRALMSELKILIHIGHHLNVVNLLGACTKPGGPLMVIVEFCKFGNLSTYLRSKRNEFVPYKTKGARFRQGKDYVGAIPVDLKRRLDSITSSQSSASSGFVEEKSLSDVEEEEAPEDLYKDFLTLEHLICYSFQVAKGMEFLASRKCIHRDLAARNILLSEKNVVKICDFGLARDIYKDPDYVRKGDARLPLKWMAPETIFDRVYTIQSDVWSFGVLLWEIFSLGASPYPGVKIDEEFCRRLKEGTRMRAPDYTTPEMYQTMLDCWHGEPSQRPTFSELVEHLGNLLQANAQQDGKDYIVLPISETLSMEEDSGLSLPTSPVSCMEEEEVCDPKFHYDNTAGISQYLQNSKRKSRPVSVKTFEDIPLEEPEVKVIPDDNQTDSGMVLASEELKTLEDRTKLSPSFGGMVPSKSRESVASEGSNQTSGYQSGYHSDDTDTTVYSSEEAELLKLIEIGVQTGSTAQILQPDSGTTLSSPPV
Description: Inhibition of KDR by HTRF assay

[4] = molecular target: Receptor-type tyrosine-protein kinase FLT3 (Homo sapiens) (UniProt P36888)
Description: Inhibition of FLT3 by HTRF assay

[5] = AUC (0 to 24 hrs) in mouse plasma at 30 mg/kg/day; type: ADME, organism-based; design: dose 30 mg/kg/day, time < 24 hr
[6] = Clearance in mouse at 3 mg/kg, iv; type: ADME, organism-based; design: dose 3 mg/kg, route intravenous; conditions: in vivo
[7] = Volume of distribution in mouse at 3 mg/kg, iv; type: ADME, organism-based; design: dose 3 mg/kg, route intravenous; conditions: in vivo
[8] = system: HT-1080; test: Inhibition of tumor growth in human HT1080 cells xenografted in SCID/Beige mouse at 30 mg/kg/day, bid relative to control; conditions: HT-1080, read-out: TGI
[9] = system: Mus musculus; test: Inhibition of estradiol-induced uterine edema in orally dosed BALB/c mouse edema model; type: functional; conditions: po
[10] = molecular target: Tyrosine-protein kinase Lyn (Homo sapiens, UniProt P07948); test: Inhibition of LYN by HTRF assay
Sequence of Tyrosine-protein kinase Lyn (P07948 whole entry): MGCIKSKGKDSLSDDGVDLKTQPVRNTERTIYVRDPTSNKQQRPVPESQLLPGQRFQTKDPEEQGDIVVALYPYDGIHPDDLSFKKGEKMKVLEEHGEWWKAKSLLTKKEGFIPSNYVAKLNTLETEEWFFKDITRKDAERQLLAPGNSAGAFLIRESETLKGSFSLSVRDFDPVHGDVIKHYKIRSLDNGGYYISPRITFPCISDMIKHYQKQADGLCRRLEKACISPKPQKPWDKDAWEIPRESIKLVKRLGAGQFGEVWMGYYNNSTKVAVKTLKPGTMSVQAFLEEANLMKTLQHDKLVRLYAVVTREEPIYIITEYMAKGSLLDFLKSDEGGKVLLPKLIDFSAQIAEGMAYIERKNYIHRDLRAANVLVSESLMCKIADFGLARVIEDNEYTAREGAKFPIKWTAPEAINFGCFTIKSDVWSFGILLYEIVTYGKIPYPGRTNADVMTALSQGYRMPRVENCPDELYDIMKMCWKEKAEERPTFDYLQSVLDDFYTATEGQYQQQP

[11] = Half life in mouse at 3 mg/kg, iv; type: ADME, organism-based; design: dose 3 mg/kg, route intravenous; conditions: in vivo
[12] = AUC (0 to 24 hrs) in mouse plasma at 10 mg/kg/day; type: ADME, organism-based; design: time < 24 hr, dose 10 mg/kg/day
[13] = Half life in mouse at 1 mg/kg, iv; type: ADME, organism-based; design: dose 1 mg/kg, route intravenous; conditions: in vivo
[14] = molecular target: Tyrosine-protein kinase HCK (Homo sapiens, UniProt P08631); test: Inhibition of HCK by HTRF assay
Sequence of Tyrosine-protein kinase HCK (P08631 whole entry): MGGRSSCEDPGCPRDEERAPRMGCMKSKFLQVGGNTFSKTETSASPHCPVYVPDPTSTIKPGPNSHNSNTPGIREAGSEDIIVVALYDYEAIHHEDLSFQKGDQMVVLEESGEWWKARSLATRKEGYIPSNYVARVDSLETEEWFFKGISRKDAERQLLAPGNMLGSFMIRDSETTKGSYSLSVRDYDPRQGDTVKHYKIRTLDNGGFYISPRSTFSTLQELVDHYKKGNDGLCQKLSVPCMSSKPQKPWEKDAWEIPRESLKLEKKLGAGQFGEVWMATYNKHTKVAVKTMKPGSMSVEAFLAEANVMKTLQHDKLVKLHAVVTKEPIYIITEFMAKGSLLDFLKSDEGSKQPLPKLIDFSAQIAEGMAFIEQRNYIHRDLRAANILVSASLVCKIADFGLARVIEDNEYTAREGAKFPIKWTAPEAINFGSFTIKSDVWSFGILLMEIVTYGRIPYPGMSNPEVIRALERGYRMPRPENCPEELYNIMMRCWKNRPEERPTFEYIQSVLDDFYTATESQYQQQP

[15] = molecular target: Angiopoietin-1 receptor (Homo sapiens, UniProt Q02763); test: Inhibition of TIE2 by HTRF assay
Sequence of Angiopoietin-1 receptor (Q02763 whole entry): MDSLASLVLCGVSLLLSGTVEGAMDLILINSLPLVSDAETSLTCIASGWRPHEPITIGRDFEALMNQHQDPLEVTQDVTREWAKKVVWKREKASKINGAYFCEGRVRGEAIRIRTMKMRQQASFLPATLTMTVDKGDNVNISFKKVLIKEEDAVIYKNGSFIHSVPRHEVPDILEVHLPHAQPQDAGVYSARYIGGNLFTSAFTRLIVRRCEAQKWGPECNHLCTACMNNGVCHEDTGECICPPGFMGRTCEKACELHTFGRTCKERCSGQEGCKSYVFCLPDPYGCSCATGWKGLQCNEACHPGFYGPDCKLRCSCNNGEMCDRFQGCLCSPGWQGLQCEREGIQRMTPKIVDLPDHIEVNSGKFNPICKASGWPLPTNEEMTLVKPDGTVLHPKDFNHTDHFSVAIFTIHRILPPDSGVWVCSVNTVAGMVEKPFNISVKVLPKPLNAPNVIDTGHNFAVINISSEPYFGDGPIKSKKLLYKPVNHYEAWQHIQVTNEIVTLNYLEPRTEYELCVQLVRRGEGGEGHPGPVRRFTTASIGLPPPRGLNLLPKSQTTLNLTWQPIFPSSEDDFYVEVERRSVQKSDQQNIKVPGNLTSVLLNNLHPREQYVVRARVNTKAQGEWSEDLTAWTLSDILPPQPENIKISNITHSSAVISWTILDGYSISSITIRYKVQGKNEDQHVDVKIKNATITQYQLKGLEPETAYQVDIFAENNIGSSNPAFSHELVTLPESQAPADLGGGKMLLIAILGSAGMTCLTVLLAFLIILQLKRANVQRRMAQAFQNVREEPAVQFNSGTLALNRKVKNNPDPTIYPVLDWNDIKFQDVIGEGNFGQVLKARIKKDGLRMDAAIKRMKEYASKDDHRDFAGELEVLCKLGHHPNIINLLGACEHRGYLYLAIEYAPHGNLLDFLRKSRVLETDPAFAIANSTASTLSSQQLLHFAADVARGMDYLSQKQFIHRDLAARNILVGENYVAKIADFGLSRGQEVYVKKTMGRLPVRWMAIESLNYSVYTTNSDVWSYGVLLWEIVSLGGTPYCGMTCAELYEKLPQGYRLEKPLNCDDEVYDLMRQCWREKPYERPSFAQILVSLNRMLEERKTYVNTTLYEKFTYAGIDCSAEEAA

[16] = Inhibition of FGFR by HTRF assay
[17] = Volume of distribution in mouse at 1 mg/kg, iv; type: ADME, organism-based; design: dose 1 mg/kg, route intravenous; conditions: in vivo
[18] = molecular target: Vascular endothelial growth factor receptor 1 (Homo sapiens, UniProt P17948); test: Inhibition of FLT1 by HTRF assay
[19] = system: HT-1080; test: Inhibition of tumor growth in human HT1080 cells xenografted in SCID/Beige mouse at 10 mg/kg/day, bid relative to control; type: functional; conditions: read-out: TGI
[20] = AUC in mouse at 10 mg/kg, po; type: ADME, organism-based; design: dose 10 mg/kg, route oral; conditions: plasma
[21] = Oral bioavailability in mouse at 10 mg/kg; type: ADME, organism-based; conditions: in vivo
[22] = molecular target: Proto-oncogene tyrosine-protein kinase Src (Homo sapiens, UniProt P12931); test: Inhibition of SRC by HTRF assay
Sequence of Proto-oncogene tyrosine-protein kinase Src (P12931 2-536 limits assumed): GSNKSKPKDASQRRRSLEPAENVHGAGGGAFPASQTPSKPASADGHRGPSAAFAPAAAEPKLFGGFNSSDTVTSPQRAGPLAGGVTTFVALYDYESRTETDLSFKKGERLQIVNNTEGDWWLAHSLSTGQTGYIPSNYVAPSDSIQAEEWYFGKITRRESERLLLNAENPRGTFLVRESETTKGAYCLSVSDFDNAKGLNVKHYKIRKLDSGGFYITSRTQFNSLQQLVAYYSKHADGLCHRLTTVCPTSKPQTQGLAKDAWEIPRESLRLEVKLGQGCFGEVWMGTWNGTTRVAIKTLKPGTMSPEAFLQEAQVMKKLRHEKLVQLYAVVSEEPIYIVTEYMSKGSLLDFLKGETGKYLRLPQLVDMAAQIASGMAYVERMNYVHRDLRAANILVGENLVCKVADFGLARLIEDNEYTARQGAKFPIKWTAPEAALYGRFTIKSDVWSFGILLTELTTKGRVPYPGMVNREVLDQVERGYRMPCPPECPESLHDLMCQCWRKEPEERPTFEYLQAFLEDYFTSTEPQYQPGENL

[23] = molecular target: Platelet-derived growth factor receptor beta (Homo sapiens, UniProt P09619); test: Inhibition of PDGFRbeta by HTRF assay
[24] = Clearance in mouse at 1 mg/kg, iv; type: ADME, organism-based; design: dose 1 mg/kg, route intravenous; conditions: in vivo
[25] = molecular target: Macrophage colony-stimulating factor 1 receptor (Homo sapiens, UniProt P07333); test: Inhibition of CSF1R by HTRF assay
[26] = molecular target: Voltage-gated inwardly rectifying potassium channel KCNH2 (Homo sapiens, UniProt Q12809)
Description: Displacement of [3H]dofetilide from human ERG expressed in HEK293 cells

Sequence of Mast/stem cell growth factor receptor Kit (P10721 whole entry): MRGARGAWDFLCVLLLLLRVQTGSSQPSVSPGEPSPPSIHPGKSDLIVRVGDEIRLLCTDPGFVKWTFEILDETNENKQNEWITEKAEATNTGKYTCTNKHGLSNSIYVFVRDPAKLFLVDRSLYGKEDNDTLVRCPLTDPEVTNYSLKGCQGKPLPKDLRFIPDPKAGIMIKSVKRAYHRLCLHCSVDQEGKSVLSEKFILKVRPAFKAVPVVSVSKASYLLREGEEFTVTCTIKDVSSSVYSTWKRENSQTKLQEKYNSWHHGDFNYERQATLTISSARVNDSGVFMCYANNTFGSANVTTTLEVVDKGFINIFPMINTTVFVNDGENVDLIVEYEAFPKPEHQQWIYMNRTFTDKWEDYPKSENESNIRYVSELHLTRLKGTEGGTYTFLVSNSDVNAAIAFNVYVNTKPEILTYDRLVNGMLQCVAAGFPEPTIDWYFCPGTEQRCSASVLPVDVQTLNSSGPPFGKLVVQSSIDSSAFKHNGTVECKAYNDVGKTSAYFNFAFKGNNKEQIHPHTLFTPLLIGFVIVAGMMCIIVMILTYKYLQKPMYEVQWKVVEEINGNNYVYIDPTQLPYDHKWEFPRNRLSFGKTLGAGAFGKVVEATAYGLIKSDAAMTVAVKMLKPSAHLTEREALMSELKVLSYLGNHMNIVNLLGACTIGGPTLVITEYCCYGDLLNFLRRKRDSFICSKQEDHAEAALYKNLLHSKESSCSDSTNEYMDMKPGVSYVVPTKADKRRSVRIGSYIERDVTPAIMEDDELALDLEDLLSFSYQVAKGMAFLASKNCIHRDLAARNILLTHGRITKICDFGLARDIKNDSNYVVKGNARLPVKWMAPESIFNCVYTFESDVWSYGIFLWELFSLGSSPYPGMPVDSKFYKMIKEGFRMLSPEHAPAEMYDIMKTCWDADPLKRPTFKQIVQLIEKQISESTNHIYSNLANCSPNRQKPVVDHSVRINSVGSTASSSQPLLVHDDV

- pIC50 [1]: 7.74
SMILES: Nc1noc2cccc(-c3ccc(NC(=O)Nc4ccccc4)cc3)c12

- pIC50 [1]: 6.99
- pIC50 [2]: 7.57
SMILES: Nc1noc2cccc(-c3ccc(NC(=O)Nc4ccc(OC(F)(F)F)cc4)cc3)c12

- pIC50 [1]: 4.83
SMILES: Nc1ccc(-c2cccc3onc(N)c23)cc1

- pIC50 [1]: < 4.90
- pIC50 [2]: 5.85
- pIC50 [3]: < 4.90
SMILES: Nc1noc2cccc(-c3ccc(NC(=O)/C=C/c4cccc(C(F)(F)F)c4)cc3)c12

- pIC50 [1]: 7.19
- pIC50 [2]: 7.21
SMILES: Cc1ccc(F)c(NC(=O)Nc2ccc(-c3ccc(C)c4onc(N)c34)cc2)c1

- Activity [4]: inactive
- pIC50 [1]: 7.57
SMILES: Nc1noc2cccc(-c3ccc(NC(=O)Nc4ccc(C(F)(F)F)cc4)cc3)c12

- Activity [4]: inactive
- pIC50 [1]: 8.30
SMILES: COc1ccc(NC(=O)Nc2ccc(-c3cccc4onc(N)c34)cc2)cc1

- pIC50 [1]: 7.64
SMILES: Cc1ccc(F)c(NC(=O)Nc2ccc(-c3cccc4onc(N)c34)cc2)c1

- pIC50 [1]: 6.94
- pIC50 [2]: 7.19
SMILES: Nc1noc2cccc(-c3ccc(NC(=O)Nc4cccc(C(F)(F)F)c4)cc3)c12

- pIC50 [1]: 6.94
- pIC50 [2]: 7.09
- pIC50 [3]: 6.44
SMILES: Cc1ccc(F)c(NC(=O)Nc2ccc(-c3ccc(CN4CCOCC4)c4onc(N)c34)cc2)c1

- pIC50 [1]: 7.30
SMILES: Cc1ccc(NC(=O)Nc2ccc(-c3cccc4onc(N)c34)cc2)cc1Cl

- pIC50 [1]: 8.00
- pIC50 [2]: 8.22
SMILES: Nc1noc2cccc(-c3ccc(NC(=O)Nc4cccc(Cl)c4)cc3)c12

- AUC at 24 h [5]: 19.1 µM·h
- clearance [6]: 18.3 mL/min/kg
- Vd [7]: 2.7 L/kg
- pIC50 [10]: < 4.30
- half-life [11]: 102 min
SMILES: Cc1ccc(F)c(NC(=O)Nc2ccc(-c3cccc4[nH]nc(N)c34)cc2)c1 [LINIFANIB]
- inhibition in vivo at 30 mg/kg/day [8]: 85%
- ED50 [9]: 0.4 mg/kg

- AUC at 24 h [12]: 13.2 µM·h
- half-life [13]: 54 min
- pIC50 [14]: < 4.30
- pIC50 [15]: 6.57
- pIC50 [16]: 5.52
- Vd [17]: 2.2 L/kg
- pIC50 [18]: 7.80
- pIC50 [1]: 7.25
- pIC50 [2]: 7.72
- AUC [20]: 30.6 µM·h
- bioavailability [21]: 100%
- pIC50 [22]: < 4.30
- pIC50 [23]: 6.89
- clearance [24]: 28.3 mL/min/kg
- pIC50 [25]: 7.52
- pIC50 [10]: < 4.30
SMILES: COc1ccc(-c2ccc(NC(=O)Nc3cccc(C(F)(F)F)c3)cc2)c2c(N)noc12
- inhibition in vivo at 10 mg/kg/day [19]: 81%
- ED50 [9]: 2 mg/kg

- pIC50 [1]: 6.53
- pIC50 [2]: 7.24
SMILES: Cc1ccc(F)c(NC(=O)Nc2ccc(-c3ccc(OC(F)(F)F)c4onc(N)c34)cc2)c1

- pIC50 [1]: < 4.90
- pIC50 [2]: < 4.90
- pIC50 [3]: < 4.90
SMILES: Nc1noc2cccc(-c3ccc(NC(=O)c4ccccc4)cc3)c12

- pIC50 [1]: 7.92
- pIC50 [2]: 7.85
SMILES: Cc1cccc(NC(=O)Nc2ccc(-c3cccc4onc(N)c34)cc2)c1

- pIC50 [1]: 8.30
SMILES: Cc1ccc(NC(=O)Nc2ccc(-c3cccc4onc(N)c34)cc2)cc1

SMILES: COc1ccc(-c2ccc(NC(=O)Nc3cc(C)ccc3F)cc2)c2c(N)noc12
- pIC50 [26]: < 4.52
- pIC50 [14]: < 4.30
- pIC50 [15]: 6.60
- clearance [6]: 16.7 mL/min/kg
- Vd [7]: 0.94 L/kg
- inhibition in vivo at 30 mg/kg/day [8]: 55%
- pIC50 [18]: 7.62
- pIC50 [1]: 7.37
- pIC50 [2]: 7.44
- ED50 [9]: 3.2 mg/kg
- AUC [20]: 8.5 µM·h
- bioavailability [21]: 34%
- pIC50 [22]: < 4.30
- pIC50 [23]: 7.02
- pIC50 [25]: 7.57
- pIC50 [10]: < 4.30
- half-life [11]: 39.6 min

- Activity [4]: inactive
- pIC50 [1]: 8.15
SMILES: Nc1noc2cccc(-c3ccc(NC(=O)Nc4cccc(Br)c4)cc3)c12
